Values of other authors in patent US9421268B2, “Pediatric oral liquid compositions containing nepadutant” (LABORATORI GUIDOTTI S.P.A., priority 2012, dated 2016).
Bridge positions count the residues as written; N and C are the ends. Square brackets hold non-standard residues; d marks the D form. Peptide text beside a SMILES is read from it. * marks the point of attachment. NH(β-GlcNAc) = CC(=O)N[C@@H]1[C@@H](O)[C@H](O)[C@@H](CO)O[C@H]1N*; Dap = NC[C@H](N)C(=O)O

Legend:
[1] = in vivo; cited from earlier work
NK2 receptors = target: T1, NK2 receptors (Rattus norvegicus, UniProt P16610); details: oral, new born rats, basal parameters not altered; cited from earlier work
T1 construct: from tissue; host or cells: intestine of new born rats (in vivo)
T1 sequence (P16610 1-390): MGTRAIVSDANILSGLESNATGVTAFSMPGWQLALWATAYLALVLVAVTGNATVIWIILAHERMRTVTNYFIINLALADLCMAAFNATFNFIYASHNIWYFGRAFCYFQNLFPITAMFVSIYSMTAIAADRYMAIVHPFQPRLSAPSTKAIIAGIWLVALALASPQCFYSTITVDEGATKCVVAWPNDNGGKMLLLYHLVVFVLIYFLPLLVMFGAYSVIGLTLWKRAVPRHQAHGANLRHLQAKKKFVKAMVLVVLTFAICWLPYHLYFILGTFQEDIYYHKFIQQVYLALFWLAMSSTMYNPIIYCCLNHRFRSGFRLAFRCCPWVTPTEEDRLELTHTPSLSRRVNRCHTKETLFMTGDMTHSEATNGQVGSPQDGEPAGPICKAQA

hyperalgesia = details: new born rats; cited from earlier work

CC(=O)N[C@@H]1[C@@H](O)[C@H](O)[C@@H](CO)O[C@H]1NC(=O)C[C@@H]1NC(=O)[C@H](CC(C)C)NC(=O)[C@@H]2CNC(=O)C[C@H](NC1=O)C(=O)N[C@@H](Cc1c[nH]c3ccccc13)C(=O)N[C@@H](Cc1ccccc1)C(=O)N2 [Nepadutant, [N^4-(2-acetylamino-2-deoxy-β-D-glucopyranosyl)-L-asparaginyl-L-α-triptophan-L-phenylalanyl-L-2,3-diaminopropio-nil-L-leucil]-C-4.2-N-3.5-lattame-C-1.6-N-2.1-lattame] (cyclo(D(NH(β-GlcNAc))DWF[Dap]L); lactam 2-5)
oral absorption [1]: absorbed | time after administration up to which the increase in intestinal transit is blocked (NK2 receptors): up to 24 hours | efficacy in a model of hyperalgesia (hyperalgesia): effective
